Data reported in article PMC7007424 (Neurotherapeutics, 2019).
Entries after “also recorded” stand apart in the source; their conditions may differ. Where two headings read alike, the source gives them in different places. Marks after values point to notes of the source that are not given here.

How the values were obtained:
[1] = tested on: L-type Ca^2+ (verapamil site, antagonist radioligand); design: method as in Rapacz et al. [12]; details: rat cerebral cortex, ref Rapacz et al. [12], cited from earlier work
[2] = tested on: PTZ-kindled mice; assay: locomotor activity test in PTZ-kindled mice; type: in vivo; details: repeated i.p. injection, AS-1 15–60 mg/kg, VPA 150 mg/kg, day 34
Protocol: Twenty-four hours after the last PTZ injection (on day 34), mice were subjected to the locomotor activity test, the elevated plus maze test, and the forced swim test. Forty-eight hours after the last PTZ injection (on day 35) the i.v. PTZ seizure threshold test was performed. Spontaneous locomotor activity of mice was monitored using the […] system supported by SedaCom32 software (Panlab/Harvard Apparatus, Barcelona, Spain) according to the method described in detail elsewhere.

[3] = tested on: fast voltage-gated sodium channels; assay: patch clamp of sodium currents in prefrontal cortex pyramidal neurons; type: cell-based, rats; details: 100 μM, holding potential − 65 mV, n = 6, p > 0.05
[4] = parallel artificial membrane permeability assay (PAMPA); type: in vitro ADME; details: ± SD, read-out: Pe, permeability coefficient
[5] = tested on: mice; assay: grip strength test; type: in vivo; details: i.p. 30 min before, AS-1 81.12 mg/kg, VPA […], combination AS-1 27.6 + VPA 59.9 mg/kg
From the text: The time before the commencement of the grip strength test (after drug administration) was identical to that of the PTZ test. This experimental procedure has been described in detail in our earlier studies.

[6] = tested on: NMDA (antagonist radioligand); design: method as in Rapacz et al. [12]; details: rat cerebral cortex, ref Rapacz et al. [12], cited from earlier work
[7] = tested on: kindled mice; assay: i.v. PTZ seizure threshold test in kindled mice; type: in vivo
[8] = tested on: hepatoma HepG2 cells; assay: hepatotoxicity, HepG2 cell viability; type: cell-based
[9] = tested on: naïve mice; assay: i.v. PTZ seizure threshold test in naïve mice; type: in vivo; details: acute
Protocol: All suspensions and solutions were prepared freshly and administered in a constant volume of 0.1 ml per 10 g of body weight. […] The timed i.v. PTZ test was used to evaluate the changes in seizure threshold in both naïve and kindled mice. The experimental procedure has been described in detail in our earlier studies.

[10] = tested on: mice; assay: chimney test; type: in vivo; details: i.p. 30 min before, AS-1 81.12 mg/kg, VPA […], combination AS-1 27.6 + VPA 59.9 mg/kg
From the text: [31]’s chimney test. The pretreatment time for AS-1 and VPA in the chimney test was identical to that of the PTZ test. This experimental procedure has been described in detail in our earlier studies.

[11] = tested on: mice; assay: passive avoidance task; type: in vivo; details: i.p. 30 min before, AS-1 81.12 mg/kg, VPA […], combination AS-1 27.6 + VPA 59.9 mg/kg
[12] = tested on: GABA transporter (antagonist radioligand); assay: GABA transporter binding; details: 100 μM; rat cerebral cortex
[13] = tested on: N-type Ca^2+ (antagonist radioligand); design: method as in Rapacz et al. [12]; details: 100 μM; rat cerebral cortex; ref Rapacz et al. [12]; cited from earlier work
[14] = target: CYP3A4 (Homo sapiens, UniProt P08684)
CYP3A4, sequence (P08684 whole entry): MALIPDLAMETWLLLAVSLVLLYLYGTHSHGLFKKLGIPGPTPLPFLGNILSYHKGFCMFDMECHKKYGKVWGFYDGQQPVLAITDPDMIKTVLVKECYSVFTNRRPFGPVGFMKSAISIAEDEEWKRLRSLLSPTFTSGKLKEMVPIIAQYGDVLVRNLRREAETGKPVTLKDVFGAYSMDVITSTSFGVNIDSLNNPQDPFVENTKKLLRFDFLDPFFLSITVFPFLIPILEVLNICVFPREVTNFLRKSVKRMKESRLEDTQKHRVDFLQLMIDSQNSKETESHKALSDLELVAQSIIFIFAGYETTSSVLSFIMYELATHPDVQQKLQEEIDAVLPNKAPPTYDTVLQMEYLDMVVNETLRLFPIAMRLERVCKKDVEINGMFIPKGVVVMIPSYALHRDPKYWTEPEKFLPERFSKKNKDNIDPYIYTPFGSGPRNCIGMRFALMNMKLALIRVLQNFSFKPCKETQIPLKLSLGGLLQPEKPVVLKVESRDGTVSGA

[15] = target: hERG potassium channel (Homo sapiens, UniProt Q12809); assay: in vitro
hERG potassium channel, sequence (Q12809 whole entry): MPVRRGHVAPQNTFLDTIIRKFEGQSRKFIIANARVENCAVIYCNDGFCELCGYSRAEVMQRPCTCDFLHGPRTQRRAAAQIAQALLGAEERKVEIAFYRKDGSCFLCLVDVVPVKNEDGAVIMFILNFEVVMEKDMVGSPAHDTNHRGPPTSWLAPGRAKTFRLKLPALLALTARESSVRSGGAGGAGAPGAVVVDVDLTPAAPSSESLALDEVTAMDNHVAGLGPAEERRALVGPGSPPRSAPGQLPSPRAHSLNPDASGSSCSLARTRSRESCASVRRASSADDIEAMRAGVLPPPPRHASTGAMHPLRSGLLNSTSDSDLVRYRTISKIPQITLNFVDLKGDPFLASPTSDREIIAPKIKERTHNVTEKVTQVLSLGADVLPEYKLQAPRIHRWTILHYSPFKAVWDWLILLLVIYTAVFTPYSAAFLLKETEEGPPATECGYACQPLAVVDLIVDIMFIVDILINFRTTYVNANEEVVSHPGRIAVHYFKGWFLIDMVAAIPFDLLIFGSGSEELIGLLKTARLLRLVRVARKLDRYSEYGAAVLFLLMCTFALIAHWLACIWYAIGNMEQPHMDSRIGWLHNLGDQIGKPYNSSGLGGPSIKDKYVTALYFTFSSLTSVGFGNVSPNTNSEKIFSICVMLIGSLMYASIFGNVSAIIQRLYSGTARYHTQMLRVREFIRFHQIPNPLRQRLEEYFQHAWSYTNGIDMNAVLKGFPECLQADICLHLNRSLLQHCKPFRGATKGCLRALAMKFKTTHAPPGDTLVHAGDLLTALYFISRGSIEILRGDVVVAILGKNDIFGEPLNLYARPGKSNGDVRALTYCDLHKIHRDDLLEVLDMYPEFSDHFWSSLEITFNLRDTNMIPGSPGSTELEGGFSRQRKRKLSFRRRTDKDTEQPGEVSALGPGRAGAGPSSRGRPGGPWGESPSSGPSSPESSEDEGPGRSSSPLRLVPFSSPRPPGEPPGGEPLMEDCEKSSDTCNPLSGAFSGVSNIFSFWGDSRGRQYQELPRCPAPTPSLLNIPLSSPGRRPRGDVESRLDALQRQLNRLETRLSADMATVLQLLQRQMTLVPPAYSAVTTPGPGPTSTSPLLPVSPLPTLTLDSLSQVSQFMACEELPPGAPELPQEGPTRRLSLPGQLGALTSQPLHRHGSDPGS

[16] = metabolic stability on human liver microsomes (HLMs); type: in vitro ADME; details: 120 min incubation with HLMs
[17] = tested on: L-type Ca^2+ (diltiazem site, antagonist radioligand); assay: L-type Ca2+ channel (diltiazem site) binding; details: 100 μM; rat cerebral cortex
[18] = tested on: 6-Hz-induced seizures (44 mA); assay: 6-Hz (44 mA) seizure model; type: in vivo; details: Mus musculus, ip; mice, i.p., 30 min before the test; 95% confidence intervals in parentheses
[19] = target: CYP2D6 (Homo sapiens, UniProt P10635)
CYP2D6, sequence (P10635 whole entry): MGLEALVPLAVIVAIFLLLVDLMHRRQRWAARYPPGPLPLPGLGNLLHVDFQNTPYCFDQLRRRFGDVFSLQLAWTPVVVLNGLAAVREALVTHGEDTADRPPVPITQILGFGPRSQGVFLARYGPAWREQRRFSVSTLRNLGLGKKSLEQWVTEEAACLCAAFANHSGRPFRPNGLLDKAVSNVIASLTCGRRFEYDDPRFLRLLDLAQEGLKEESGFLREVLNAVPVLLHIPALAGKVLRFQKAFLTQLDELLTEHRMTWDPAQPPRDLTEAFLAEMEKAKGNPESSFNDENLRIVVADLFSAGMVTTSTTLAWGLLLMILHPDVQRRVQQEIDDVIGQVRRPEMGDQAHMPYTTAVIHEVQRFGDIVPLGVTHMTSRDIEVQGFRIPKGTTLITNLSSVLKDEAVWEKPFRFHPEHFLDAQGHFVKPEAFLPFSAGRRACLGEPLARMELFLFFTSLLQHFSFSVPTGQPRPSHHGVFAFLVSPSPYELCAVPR

[20] = tested on: PTZ-kindled mice; assay: elevated plus maze test in PTZ-kindled mice; type: in vivo; details: repeated i.p. injection, AS-1 15–60 mg/kg, VPA 150 mg/kg
Protocol: (§1) Twenty-four hours after the last PTZ injection (on day 34), mice were subjected to the locomotor activity test, the elevated plus maze test, and the forced swim test. Forty-eight hours after the last PTZ injection (on day 35) the i.v. PTZ seizure threshold test was performed. The elevated plus maze test was used to assess the anxiety-like behavior in kindled animal, as described in detail in our previous study.

[21] = tested on: 6-Hz (32 mA) psychomotor seizures; details: mice, i.p., cited from earlier work; for ED50 (6 Hz, 32 mA): ref [10], [12]; for anticonvulsant activity in 6 Hz, 32 mA: known AED profile, Fig. 1
[22] = tested on: zebrafish larvae; assay: EEG discharge assessment in zebrafish larvae exposed to PTZ; details: 5 mM, 20 h incubation, then 20 mM PTZ for 5 min; vs vehicle-incubated control
[23] = target: T1, TRPV1 (VR1) (h) (Homo sapiens, UniProt Q8NER1); assay: TRPV1 functional assay (antagonist effect); type: cell-based; details: human recombinant (CHO cells), read-out: % inhibition of control agonist/antagonist response (antagonist effect)
T1 construct: Cerep Laboratories (contract testing)
T1 sequence (Q8NER1 whole entry): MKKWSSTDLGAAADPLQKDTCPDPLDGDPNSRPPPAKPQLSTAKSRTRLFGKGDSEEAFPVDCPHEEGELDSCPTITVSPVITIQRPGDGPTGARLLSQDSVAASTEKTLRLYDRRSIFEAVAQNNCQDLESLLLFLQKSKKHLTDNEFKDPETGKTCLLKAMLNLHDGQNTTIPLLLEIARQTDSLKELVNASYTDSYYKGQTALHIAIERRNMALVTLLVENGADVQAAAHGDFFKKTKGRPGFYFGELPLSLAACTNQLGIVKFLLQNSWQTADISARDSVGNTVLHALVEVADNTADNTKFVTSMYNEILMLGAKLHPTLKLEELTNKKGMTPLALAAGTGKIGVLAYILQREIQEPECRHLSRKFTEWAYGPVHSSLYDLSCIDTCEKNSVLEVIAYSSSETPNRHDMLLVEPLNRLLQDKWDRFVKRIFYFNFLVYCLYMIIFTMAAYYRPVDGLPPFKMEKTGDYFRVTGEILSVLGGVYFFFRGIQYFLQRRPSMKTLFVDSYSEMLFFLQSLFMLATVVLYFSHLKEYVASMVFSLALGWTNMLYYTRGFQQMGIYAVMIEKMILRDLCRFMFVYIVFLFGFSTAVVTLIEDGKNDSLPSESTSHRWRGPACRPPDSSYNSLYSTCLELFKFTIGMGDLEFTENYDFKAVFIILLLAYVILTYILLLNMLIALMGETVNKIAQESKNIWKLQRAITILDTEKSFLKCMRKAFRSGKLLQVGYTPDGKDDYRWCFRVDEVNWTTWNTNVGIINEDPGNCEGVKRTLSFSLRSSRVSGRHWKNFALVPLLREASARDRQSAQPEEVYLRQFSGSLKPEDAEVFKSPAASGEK

[24] = tested on: PTZ-induced kindling in mice; assay: PTZ-induced kindling; type: in vivo; details: 33 daily i.p. injections; AS-1 15, 30 and 60 mg/kg, VPA 150 mg/kg; PTZ 40 mg/kg i.p. every 48 h, 17 injections; vs PTZ-kindled control
Protocol: All suspensions and solutions were prepared freshly and administered in a constant volume of 0.1 ml per 10 g of body weight. In all experiments, AS-1 and VPA were injected i.p. Control animals received vehicles only. […] After each PTZ injection, mice were placed separately into transparent cages for 30 min for behavioral observation to assign an appropriate seizure score. […] After each PTZ injection, the mean seizure severity score for each experimental group was calculated. Non-kindled (control) mice were treated as kindled animals, except that they were injected with normal saline instead of PTZ. Experimental grouping for PTZ kindling was as follows: […]

[25] = tested on: hepatoma HepG2 cells; details: 24 h incubation, only at the highest used dose of 100 μM; ref [12]; cited from earlier work
[26] = target: T2, CB1 (h) (Homo sapiens, UniProt P21554); assay: CB1 functional assay (agonist and antagonist effect); type: cell-based; details: human recombinant (CHO cells), read-out: % inhibition of control agonist/antagonist response (antagonist effect)
T2 construct: Cerep Laboratories (contract testing)
T2 sequence (P21554 whole entry): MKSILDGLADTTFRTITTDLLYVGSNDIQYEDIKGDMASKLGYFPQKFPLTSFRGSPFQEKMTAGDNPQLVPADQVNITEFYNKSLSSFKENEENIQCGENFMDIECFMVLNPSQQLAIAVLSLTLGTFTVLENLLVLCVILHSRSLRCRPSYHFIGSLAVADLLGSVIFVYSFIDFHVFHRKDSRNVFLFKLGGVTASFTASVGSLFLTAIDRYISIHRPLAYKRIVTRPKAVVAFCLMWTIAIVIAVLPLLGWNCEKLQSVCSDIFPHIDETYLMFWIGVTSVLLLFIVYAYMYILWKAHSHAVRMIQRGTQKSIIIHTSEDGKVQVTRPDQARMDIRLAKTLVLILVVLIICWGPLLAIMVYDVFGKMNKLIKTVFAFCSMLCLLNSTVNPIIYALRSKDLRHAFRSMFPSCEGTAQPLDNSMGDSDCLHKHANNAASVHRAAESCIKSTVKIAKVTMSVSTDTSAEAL

[27] = tested on: PTZ-induced clonic seizures in mice; assay: s.c. PTZ-induced clonic seizure test, with isobolographic analysis; type: in vivo
Protocol: Following PTZ administration, mice were placed separately in transparent Plexiglas cages (25 cm × 15 cm × 10 cm) and observed for 30 min for the occurrence of clonic seizures. Clonic seizure activity was defined as the clonus of the whole body lasting for over 3 s, with an accompanying loss of righting reflex.
To determine the ED50 mix value, both drugs in the mixture (at proportionally raised doses) were administered to the mice and a dose–response relationship for the mixture was denoted using Litchfield and Wilcoxon [25]’s log-probit method. • Statistical comparison of the experimentally derived ED50 mix values with their corresponding theoretically additive ED50 add values was undertaken using the unpaired Student’s t test, according to Tallarida [30]. • Graphical illustration of the examined interactions as isobolograms (i.e., simple forms of interaction visualizations).

[28] = tested on: Na^+ channel (site 2); design: method as in Rapacz et al. [12]; details: rat cerebral cortex, ref Rapacz et al. [12], cited from earlier work
[29] = target: CYP2C9 (Homo sapiens, UniProt P11712); details: 10 μM
CYP2C9, sequence (P11712 whole entry): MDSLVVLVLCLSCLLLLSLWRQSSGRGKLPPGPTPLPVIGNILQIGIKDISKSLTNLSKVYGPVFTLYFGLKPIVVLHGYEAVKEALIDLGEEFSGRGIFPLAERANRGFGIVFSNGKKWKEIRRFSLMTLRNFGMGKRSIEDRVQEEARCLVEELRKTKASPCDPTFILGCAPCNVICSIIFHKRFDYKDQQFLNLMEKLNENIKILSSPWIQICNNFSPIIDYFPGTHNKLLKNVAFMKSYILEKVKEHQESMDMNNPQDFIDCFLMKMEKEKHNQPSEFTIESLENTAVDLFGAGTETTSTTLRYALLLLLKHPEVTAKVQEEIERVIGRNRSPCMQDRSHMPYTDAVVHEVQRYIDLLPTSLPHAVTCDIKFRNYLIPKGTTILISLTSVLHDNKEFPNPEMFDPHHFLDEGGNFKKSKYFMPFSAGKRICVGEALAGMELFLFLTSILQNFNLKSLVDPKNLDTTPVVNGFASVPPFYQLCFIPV

[30] = tested on: PTZ-induced clonic seizures in mice; details: i.p., cited from earlier work
[31] = tested on: PTZ-kindled mice; design: method as in PMID 30247871; details: former study, ref [13]; cited from earlier work
[32] = tested on: maximal electroshock (MES) seizure; details: mice, i.p.; known AED profile, Fig. 1; cited from earlier work
[33] = tested on: 6-Hz seizures; design: method as in PMID 28449218; details: 6-Hz test; ref [17]; cited from earlier work
[34] = tested on: PTZ-kindled mice; assay: forced swim test in PTZ-kindled mice; type: in vivo; details: repeated i.p. injection, AS-1 15–60 mg/kg, VPA 150 mg/kg, vs kindled control
Protocol: as §1, with “The forced swim” for “The elevated plus maze”, “the depressive-like” for “the anxiety-like”, “kindled animals. The procedure was performed” for “kindled animal,”, “detail elsewhere.” for “detail in our previous study.”

[35] = repeated i.p. pretreatment 15–60 mg/kg
[36] = 15 mg/kg i.p., 30 min before the test
[37] = 30 mg/kg and 60 mg/kg i.p. (p < 0.01 and p < 0.001)

CC(C(=O)NCc1ccccc1)N1C(=O)CCC1=O (stereo not drawn) [AS-1, N-benzyl-2-(2,5-dioxopyrrolidin-1-yl)propanamide]
% inhibition of control-specific binding ([1]; 100 μM): 15.0%
% inhibition of control-specific binding ([1]; 500 μM): 45.0%
effect on spontaneous locomotor activity [2]: did not affect locomotor activity
maximal amplitude of sodium currents normalized to control (1.0 in control) [3]: 0.93 ± 0.06
Papp [4]: 9.8 ± 2 ×10⁻⁶ cm/s
Muscular strength, mean grip strength ± SEM [5]: 99.9 ± 2.2 g
% inhibition of control-specific binding ([6]; 100 μM): 15.0%
% inhibition of control-specific binding ([6]; 200 μM): 35.0%
effect on seizure threshold for the first myoclonic twitch ([7]; repeated i.p. injection of 60 mg/kg, 48 h after last PTZ, vs non-kindled control): significantly increased the seizure threshold
effect on threshold for forelimb tonus [7, 35]: No changes
effect on threshold for generalized clonus [7, 35]: No changes
HepG2 viability ([8]; 100 μM, 72 h incubation, ± SD): 82.3 ± 6.5^a Percentage of control
effect on HepG2 cells' viability ([8]; only at the highest concentration used of 100 μM, 72 h, p < 0.05): slight but statistically significant effect
effect on threshold for generalized clonus [9, 36]: did not affect significantly
effect on threshold for the first myoclonic twitch [9, 36]: did not affect significantly
effect on threshold for generalized clonic seizure [9, 37]: raised the thresholds
effect on threshold for the first myoclonic twitch [9, 37]: raised the thresholds
effect on susceptibility to PTZ-induced forelimb extension (forelimb tonus threshold) ([9]; 15–60 mg/kg i.p.): did not affect
Motor coordination, percentage of animals showing motor coordination impairment [10]: 0%
Retention time, median (25th; 75th percentiles) [11]: 180 (146; 180) s
% inhibition of control-specific binding [12]: 2.4 (100) %
% inhibition of control-specific binding [13]: 0.2 (100) %
effect on CYP3A4 activity [14]: No significant effect
inhibition at 100 µM [15]: 0.8%
Phase I metabolism in human (metabolites by UPLC) [16]: no presence of metabolites; also recorded: No metabolites found
% inhibition of control-specific binding [17]: 10.2 (100) %
ED50 [18]: 75.4 mg/kg
effect on CYP2D6 activity [19]: No significant effect
CYP2D6 activity ([19]; human, 10 μM): 104.4 ± 0.5^a Percentage of control
effect on percentage of open arm entries and percentage of time spent in open arms [20]: did not produce any significant changes
ED50 (6 Hz, 32 mA) [21]: 24.66 mg/kg
effect on number of epileptiform discharges during 20 min [22]: significantly reduced
inhibition at 100 µM [23]: 4.3%
effect on kindling development (mean seizure severity score) [24]: significantly suppressed kindling development
effect on HepG2 cells [25]: weak, statistically significant toxic effect
inhibition at 100 µM [26]: 5.6%
ED50 ([27]; Mus musculus, drug alone i.p. 30 min before s.c. PTZ 100 mg/kg, ± SEM, read-out: ED50 against PTZ-induced clonic seizures): 81.1 ± 10.4 mg/kg
% inhibition of control-specific binding ([28]; 100 μM): 15.9%
% inhibition of control-specific binding ([28]; 500 μM): 56.0%
CYP2C9 activity [29]: 67.0 ± 3.6^a Percentage of control

N#CC(C#N)=NNc1cccc(Cl)c1 [CCCP, carbonyl cyanide 3-chlorophenylhydrazone, reference compound]
HepG2 cells' viability ([8]; 10 μM): ~ 40 % of control

COc1cccc2c1C(=O)c1c(O)c3c(c(O)c1C2=O)C[C@@](O)(C(=O)CO)C[C@@H]3O[C@H]1C[C@H](N)[C@H](O)[C@H](C)O1 [DX, doxorubicin, reference compound]
HepG2 cells' viability ([8]; 1 μM): ~ 40 % of control

CCC1(C)CC(=O)NC1=O (stereo not drawn) [ETX, ethosuximide]
anticonvulsant activity in scPTZ ([30]; known AED profile, Fig. 1): active

CC(C(=O)N1CCN(c2cccc(C(F)(F)F)c2)CC1)N1C(=O)CCC1=O (stereo not drawn) [KA-11, 1-(1-oxo-1-(4-(3-(trifluoromethyl)phenyl)piperazin-1-yl)propan-2-yl)pyrrolidine-2,5-dione]
effect on depressive-like behavior caused by PTZ-induced kindling [31]: prevented the depressive-like behavior

COC[C@@H](NC(C)=O)C(=O)NCc1ccccc1 [LCS, lacosamide, reference compound]
anticonvulsant activity in MES [32]: active
anticonvulsant activity in 6 Hz, 32 mA [21]: active

CC[C@@H](C(N)=O)N1CCCC1=O [LEV, levetiracetam]
ED50 at 44 mA versus ED50 at 32 mA stimulus intensity [33]: at least 50 times
anticonvulsant activity in 6 Hz, 32 mA [21]: active

CCCC(CCC)C(=O)O [VPA, valproic acid, reference compound]
effect on spontaneous locomotor activity [2]: did not affect locomotor activity
Muscular strength, mean grip strength ± SEM [5]: 104.7 ± 2.8 g
Motor coordination, percentage of animals showing motor coordination impairment [10]: 12.5%
Retention time, median (25th; 75th percentiles) [11]: 180 (180; 180) s
ED50 (s.c. PTZ) ([30]; earlier study, ref [10], [12]): 239.45 mg/kg
effect on percentage of open arm entries and percentage of time spent in open arms [20]: did not produce any significant changes
ED50 (6 Hz, 32 mA) [21]: 130.65 mg/kg
effect on kindling development (mean seizure severity score) [24]: suppressed kindling progression
protection against PTZ-induced clonic seizures ([27]; 125 mg/kg i.p.): 12.5%
protection against PTZ-induced clonic seizures ([27]; 150 mg/kg i.p.): 37.5%
protection against PTZ-induced clonic seizures ([27]; 200 mg/kg i.p.): 62.5%
effect on total immobility duration [34]: significantly decreased the immobility time
